Results taken from paper PMC5420417, “Inhibitory Effect of Chemical Constituents Isolated from Artemisia iwayomogi on Polyol Pathway and Simultaneous Quantification of Major Bioactive Compounds” (BioMed Research International, 2017).
Like-named read-outs stand apart in the source and are kept apart here.

Experiments:
[1] = tested on: advanced glycation endproducts (AGEs) formation; experiment: AGEs formation inhibitory activity, bovine serum albumin with fructose and glucose, fluorescence; type: biochemical; details: for IC50: ND = not detected
Method: Inhibition of AGEs formation was determined by an assay containing bovine serum albumin (10 mg/mL) in 50 mM phosphate buffer (pH 7.4) with 0.02% sodium azide, to which 0.4 M fructose and glucose was added. The assay mixture was incubated at 60°C for 2 days. After incubating, the reaction was measured on Fluorescence in a 96-black-well plate (excitation wavelength 350 nm, emission wavelength 450 nm). Aminoguaidine (AG) was used as a positive control.
(§1) Inhibition (%): (Ac − As/Ac) × 100. In AR inhibition activity, Ac is absorbance of control and As is absorbance of samples. In AGEs formation inhibition activity, Ac is fluorescence of control and As is fluorescence of samples. […] IC50 values were calculated from the least-squares regression line of the log of concentration plotted against residual activity. All assays were performed in triplicate. Data was presented as mean ± standard deviation (SD).

aldose reductase (AR) = target: T1, aldose reductase (AR) (Rattus norvegicus, UniProt P07943); experiment: Aldose reductase (AR) inhibitory activity, rat lens homogenate, decrease of β-NADPH absorption at 340 nm; type: biochemical, Sprague-Dawley rats
T1 construct: The rat lenses were homogenized in 0.1 M sodium phosphate buffer (pH 6.2) and centrifuged; from tissue; host or cells: lens of Sprague-Dawley rats (homogenate supernatant)
Method: Rat lenses (one lens per 0.5 mL sodium buffer) were obtained from Sprague-Dawley rats (weighing 250~280 g). The rat lenses were homogenized in 0.1 M sodium phosphate buffer (pH 6.2) and centrifuged at 10,000 rpm (4°C, 20 min). After centrifugation, the supernatant was used as an enzyme. AR activity was spectrophotometrically determined by measuring the decrease in the absorption of β-NADPH at 340 nm for a 4 min period using DL-glyceraldehydes as substrates. The assay mixture contained 1.6 mM β-NADPH, 0.1 M potassium phosphate buffer (pH 7.0), AR homogenate, 4 M ammonium sulfate, 0.025 M DL-glyceraldehyde, and the sample in 100% DMSO. The total volume of the assay mixture was 0.3 mL and the reaction was performed in a 96-well plate. 3,3′-Tetramethylene glutaric acid (TMG), a typical AR inhibitor, was used as a positive control.
as §1

AR = tested on: AR; set-up: method as in PMID 21092751, PMID 18379080; details: previous literature ref 24, 38; cited from earlier work
[2] = BSA 10 mg/mL, 0.4 M fructose and glucose, 60°C, 2 days, mean ± SD
[3] = rat lens AR, DL-glyceraldehyde substrate, mean ± SD, triplicate, read-out: IC50 AR

| Compound | IC50 [1, 2] [µM] | IC50 (aldose reductase (AR); [3]) [µM] | also measured |
| --- | --- | --- | --- |
| N=C(N)NN [AG, Aminoguaidine, reference compound] | 415 ± 5.96 | – | IC50 AGEs formation ([1]; BSA 10 mg/mL, 0.4 M fructose and glucose, 60°C, 2 days, extract and fractions, mean ± SD): 45.85 ± 7.17^∗∗ μg/ml |
| COc1cc2ccc(=O)oc2cc1O [Compound 1, scopoletin] | 20.7 ± 1.38 | 90.4 ± 1.91 | inhibition of AR (in words) (aldose reductase (AR); rat lens AR): minor inhibition |
| COc1cc(O)c2c(=O)cc(-c3ccc(O)cc3)oc2c1 [Compound 3, genkwanin] | 312 ± 11.3 | > 200 | – |
| COc1c(O)cc2oc(-c3ccc(O)cc3)cc(=O)c2c1O [Compound 4, hispidulin] | 185.6 ± 0.2 | – | IC50 (aldose reductase (AR)): 2.93 ± 0.11 µM |
| COc1c(O)cc2oc(-c3ccc(O)c(O)c3)c(OC3OC(CO)C(O)C(O)C3O)c(=O)c2c1O (centres unmarked) [Compound 8, patuletin-3-O-glucoside] | 197 ± 11 | 3.19 ± 0.1 | – |
| O=c1c(O[C@@H]2O[C@H](CO)[C@@H](O)[C@H](O)[C@H]2O)c(-c2ccc(O)c(O)c2)oc2cc(O)cc(O)c12 [Compound 9, isoquercetin] | 67.4 ± 9.95 | 3.32 ± 0.21 | – |
| C[C@@H]1O[C@@H](OC[C@H]2O[C@@H](Oc3c(-c4ccc(O)c(O)c4)oc4cc(O)cc(O)c4c3=O)[C@H](O)[C@@H](O)[C@@H]2O)[C@H](O)[C@H](O)[C@H]1O [Compound 11, rutin] | 129 ± 4.01 | 12.5 ± 0.2 | – |
| O=C(/C=C/c1ccc(O)c(O)c1)OC1CC(O)(C(=O)O)CC(O)C1OC(=O)/C=C/c1ccc(O)c(O)c1 (centres unmarked) [Compound 14, 3,4-di-O-caffeoylquinic acid] | 124 ± 4.25 | 1.9 ± 0.01 | – |
| O=C(/C=C/c1ccc(O)c(O)c1)OC1CC(O)(C(=O)O)CC(OC(=O)/C=C/c2ccc(O)c(O)c2)C1O (centres unmarked) [Compound 15, 3,5-di-O-caffeoylquinic acid] | 31.8 ± 0.56 | – | – |
| O=C(O)CC1(CC(=O)O)CCCC1 [TMG, 3,3′-Tetramethylene glutaric acid, reference compound] | – | 6.58 ± 0.19 | IC50 AR (aldose reductase (AR); rat lens AR, DL-glyceraldehyde substrate, extract and fractions, mean ± SD, triplicate): 1.22 ± 0.03^∗ μg/ml |
| O=C(O)/C=C/c1ccc(O)c(O)c1 [caffeic acid] | – | – | inhibitory activity on AR (in words) (AR): no inhibitory activity |

Further lines, with some results ahead:

| IC50 [1, 2] [µM] | IC50 (aldose reductase (AR); [3]) [µM] | Compound | also measured |
| --- | --- | --- | --- |
| 82.4 ± 1.52 | 131.37 ± 0.12 | COc1cc2ccc(=O)oc2cc1O[C@@H]1O[C@H](CO)[C@@H](O)[C@H](O)[C@H]1O [Compound 2, scopolin] | – |
| 170 ± 16.4 | 111 ± 9.89 | COc1cc(-c2cc(=O)c3c(O)c(OC)c(O)cc3o2)ccc1O [Compound 5, jaceosidin] | – |
| 176 ± 5.77 | 4.54 ± 0.16 | O=C(/C=C/c1ccc(O)c(O)c1)OC1CC(O)(C(=O)O)CC(O)C1O (centres unmarked) [Compound 12, 3-O-caffeoylquinic acid] | – |
| 24.9 ± 1.86 | 0.22 ± 0.01 | O=C(/C=C/c1ccc(O)c(O)c1)OC1CC(OC(=O)/C=C/c2ccc(O)c(O)c2)(C(=O)O)CC(O)C1O (centres unmarked) [Compound 13, 1,3-di-O-caffeoylquinic acid] | inhibition of AR (in words) (aldose reductase (AR); rat lens AR): strongest inhibition |
| 44.5 ± 4.86 | 1.48 ± 0.04 | COC(=O)C1(O)CC(OC(=O)/C=C/c2ccc(O)c(O)c2)C(O)C(OC(=O)/C=C/c2ccc(O)c(O)c2)C1 (centres unmarked) [Compound 16, 3,5-di-O-caffeoylquinic acid methyl ester] | – |
| – | > 200 | CC1(C)C(O)CCC2(C)C3CCC4CC3(CCC12)CC4(O)COC1OC(CO)C(O)C(O)C1O (centres unmarked) [Compound 17, iwayoside A] | – |
| – | > 200 | CC1(C)C(O)CCC2(C)C3CCC4CC3(CCC12)CC4(O)COC1OC(CO)C(O)C(O)C1O (centres unmarked) [Compound 18, suavioside A] | – |
| – | > 200 | CC1(C)C(=O)CCC2(C)C3CCC4CC3(CCC12)CC4(O)COC1OC(CO)C(O)C(O)C1O (centres unmarked) [Compound 19, sugeroside] | – |
| 1049 ± 0.11 | > 200 | COc1cc(OC2OC(CO)C(O)C(O)C2O)cc(O)c1C(C)=O [Compound 20, 2,4-dihydroxy-6-methoxyacetophenone 4-O-β-D-glucopyranoside] | inhibition of AGEs formation (in words) ([1]; BSA/fructose/glucose): only slight inhibition |
